12 compounds from patent US4977268A, “Boron dipeptide compounds” (priority 1988, dated 1990) can be followed below.

The structures appear in SMILES notation. In brackets after ≈: the same amount, converted by molar mass.

In experiment [1] the test system is Ehrlich ascites carcinoma. Put plainly: Ehrlich ascites carcinoma in vivo screen. On the set-up: concentration or dose not given beside the values. The conditions noted are these: CF-1 mice.
The test system of the next experiment is L-1210 lymphoid leukemia. Put plainly: Cytotoxic assay, L-1210 lymphoid leukemia cell line. It counts as cell-based. The following applies: dosage required to kill 50 percent of the tumor cells in cell culture.
Experiment [2] deals with P-388 lymphocytic leukemia. Put plainly: Cytotoxic assay, P-388 lymphocytic leukemia cell line. The conditions noted are these: dosage required to kill 50 percent of the tumor cells in cell culture. It counts as cell-based.
Excerpt: (§2) Boron dipeptide analogs were investigated for potential antineoplastic activity in the Ehrlich ascites carcinoma in vivo screen in CF-1 mice and in cytotoxic assays involving the L-1210 lymphoid leukemia and P-388 lymphocytic leukemia cell lines. The ED50 is the effective dosage required to kill 50 percent of the tumor cells in the leukemia cell culture.
The test system of another experiment is serum cholesterol levels. Put plainly: Antihyperlipidemic screen, serum cholesterol. It counts as in vivo. The following applies: male CF1 mice. Here is the method:
(§1) Compounds to be tested were suspended in 1% aqueous carboxymethylcellulose and administered to male CF1 mice (25 g) intraperitoneally for 16d. On days 9 and 16, blood was obtained by tail vein bleeding, and the serum was separated by centrifugation for three minutes. The serum cholesterol levels were determined by a modification of the Liebermann-Burchard reaction [A. T. Ness, J. V. Pastewka, and A. C. Peacock, Clin. Chim. Acta, 10, 229 (1964)]. Serum triglyceride levels were determined with a commercial kit [Fisher, Hycel Triglyceride Test Kit] for a different group of animal bled on day 16.

Experiment [3] concerns Serum triglyceride levels. Put plainly: Antihyperlipidemic screen, serum triglyceride. It counts as in vivo. The conditions noted are these: male CF1 mice. As to the method: as §1

Excerpt for L-1210 lymphoid leukemia: as §2

On to `COC(=O)[C@H](C)NC(=O)[BH2-][N+](C)(C)C` [Compound 16, N-[(Trimethylamine-boryl)carbonyl]-L-alanine methyl ester], for which the “In Vivo % Inhibition of Ehrlich Ascites Carcinoma Growth” value (“In Vivo % Inhibition” below) in experiment [1] is 83%.

Consider `Sc1ncnc2nc[nH]c12` [6-Mercaptopurine, reference compound], for which the “In Vivo % Inhibition” value in experiment [1] is 99.6%. For the same compound, the “ED50 Cytotoxicity L-1210 Lymphoid Leukemia” value in the experiment with L-1210 lymphoid leukemia was 2.43 µg/mL (≈ 16 µM). In addition, in experiment [2], the “ED50 Cytotoxicity P-388 Lymphocytic Leukemia” value came to 4.10 µg/mL (≈ 26.9 µM).

`COC(=O)[C@H](CCSC)NC(=O)[BH2-][N+](C)(C)C` [Compound 9, N-[(Trimethylamine-boryl)carbonyl]-L-methionine methyl ester]: in the experiment with serum cholesterol levels (20 mg/kg intraperitoneally), the “% Inhibition Serum Cholesterol Day 9” value is listed as 55% and the “% Inhibition Serum Cholesterol Day 16” value was 55%. Besides, the “In Vivo % Inhibition” value in experiment [1] is 41%. For the same compound, the “ED50 Cytotoxicity L-1210 Lymphoid Leukemia” value in the experiment on L-1210 lymphoid leukemia was 6.62 µg/mL (≈ 25.2 µM). Besides, the “% Inhibition Serum Triglyceride Day 16” value in experiment [3] (20 mg/kg intraperitoneally) was 23%. For the same compound, in experiment [2], the “ED50 Cytotoxicity P-388 Lymphocytic Leukemia” value was 12.86 µg/mL (≈ 49 µM).

Regarding `CSCCC(NC(=O)[BH2-][NH3+])C(N)=O` (stereo not drawn) [Compound 3, N-[(Ammonia-boryl)carbonyl] methionine amide], in experiment [1], the “In Vivo % Inhibition” value came out at 75%. In addition, the “ED50 Cytotoxicity L-1210 Lymphoid Leukemia” value with L-1210 lymphoid leukemia was 4.17 µg/mL (≈ 20.3 µM). Also, the “ED50 Cytotoxicity P-388 Lymphocytic Leukemia” value in experiment [2] is 8.57 µg/mL (≈ 41.8 µM).

For the compound `Nc1ccn([C@@H]2O[C@H](CO)[C@@H](O)[C@@H]2O)c(=O)n1` [Ara C, reference compound], in the experiment on L-1210 lymphoid leukemia, the “ED50 Cytotoxicity L-1210 Lymphoid Leukemia” value amounted to 2.76 µg/mL (≈ 11.3 µM). Moreover, the “ED50 Cytotoxicity P-388 Lymphocytic Leukemia” value in experiment [2] came out at 4.06 µg/mL (≈ 16.7 µM).

For `NC(=O)C(CO)NC(=O)[BH2-][NH3+]` (stereo not drawn) [Compound 2, N-[(Ammoniaboryl)carbonyl]serine amide], the “In Vivo % Inhibition” value in experiment [1] is reported as 52%. In addition, the “ED50 Cytotoxicity L-1210 Lymphoid Leukemia” value in the experiment on L-1210 lymphoid leukemia is 10.6 µg/mL (≈ 65.9 µM). In addition, the “ED50 Cytotoxicity P-388 Lymphocytic Leukemia” value in experiment [2] came out at 8.73 µg/mL (≈ 54.2 µM).

In the case of `N[C@@H](Cc1ccc(N(CCCl)CCCl)cc1)C(=O)O` [Melphalan, reference compound], in experiment [1], the “In Vivo % Inhibition” value worked out at 99%.

Take `NC(=O)CNC(=O)[BH2-][NH3+]` [Compound 1, N-[(ammonia-boryl)carbonyl]glycine amide]: in the experiment on serum cholesterol levels (8 mg/kg intraperitoneally), the “% Inhibition Serum Cholesterol Day 9” value is 21% and the “% Inhibition Serum Cholesterol Day 16” value is reported as 42%. Moreover, the “In Vivo % Inhibition” value in experiment [1] was determined as 67%. Also, in the experiment on L-1210 lymphoid leukemia, the “ED50 Cytotoxicity L-1210 Lymphoid Leukemia” value turned out to be 1.40 µg/mL (≈ 10.7 µM). Further, in experiment [3] (8 mg/kg intraperitoneally), the “% Inhibition Serum Triglyceride Day 16” value stood at 53%. For the same compound, the “ED50 Cytotoxicity P-388 Lymphocytic Leukemia” value in experiment [2] was found to be 7.62 µg/mL (≈ 58.2 µM).

As for `O=c1[nH]cc(F)c(=O)[nH]1` [5-Fluorouracil, reference compound], the “ED50 Cytotoxicity L-1210 Lymphoid Leukemia” value with L-1210 lymphoid leukemia was 1.94 µg/mL (≈ 14.9 µM). Also, in experiment [2], the “ED50 Cytotoxicity P-388 Lymphocytic Leukemia” value came out at 3.72 µg/mL (≈ 28.6 µM).

Take `COC(=O)[C@H](CO)NC(=O)[BH2-][N+](C)(C)C` [Compound 8, N-[(Trimethylamine-boryl)carbonyl]-L-serine methyl ester]: the “In Vivo % Inhibition” value in experiment [1] stood at 61%. For the same compound, the “ED50 Cytotoxicity L-1210 Lymphoid Leukemia” value in the experiment on L-1210 lymphoid leukemia was found to be 1.98 µg/mL (≈ 9.08 µM). Besides, the “ED50 Cytotoxicity P-388 Lymphocytic Leukemia” value in experiment [2] was determined as 9.21 µg/mL (≈ 42.2 µM).

As to `COC(=O)CNC(=O)[BH2-][N+](C)(C)C` [Compound 7, N-[(Trimethylamine-boryl)carbonyl]glycine methyl ester], the “% Inhibition Serum Cholesterol Day 9” value with serum cholesterol levels (8 mg/kg intraperitoneally) turned out to be 21%; in the experiment on serum cholesterol levels (20 mg/kg intraperitoneally), 31%. The “% Inhibition Serum Cholesterol Day 16” value in the experiment with serum cholesterol levels (8 mg/kg intraperitoneally) turned out to be 42%; in the experiment with serum cholesterol levels (20 mg/kg intraperitoneally) it was 52%. Also, the “In Vivo % Inhibition” value in experiment [1] came out at 89%. Moreover, in the experiment with L-1210 lymphoid leukemia, the “ED50 Cytotoxicity L-1210 Lymphoid Leukemia” value turned out to be 7.00 µg/mL (≈ 37.2 µM). Also, the “% Inhibition Serum Triglyceride Day 16” value in experiment [3] (8 mg/kg intraperitoneally) is reported as 59%; in experiment [3] (20 mg/kg intraperitoneally) it was 30%. Also, in experiment [2], the “ED50 Cytotoxicity P-388 Lymphocytic Leukemia” value was found to be 12.11 µg/mL (≈ 64.4 µM).

As to `COC(=O)[C@H](Cc1ccccc1)NC(=O)[BH2-][N+](C)(C)C` [Compound 13, N-[(Trimethylamine-boryl)carbonyl]-L-phenylalanine methyl ester], in the experiment on serum cholesterol levels (20 mg/kg intraperitoneally), the “% Inhibition Serum Cholesterol Day 9” value turned out to be 25% and the “% Inhibition Serum Cholesterol Day 16” value is 48%. Further, the “In Vivo % Inhibition” value in experiment [1] stood at 94%. In the experiment with L-1210 lymphoid leukemia, the “ED50 Cytotoxicity L-1210 Lymphoid Leukemia” value came to 10.84 µg/mL (≈ 39 µM). In addition, in experiment [3] (20 mg/kg intraperitoneally), the “% Inhibition Serum Triglyceride Day 16” value came to 33%. For the same compound, the “ED50 Cytotoxicity P-388 Lymphocytic Leukemia” value in experiment [2] was found to be 8.89 µg/mL (≈ 32 µM).
